The text below walks through data of paper PMC3610344, “Differential Cytotoxicity Responses by Dog and Rat Hepatocytes to Phospholipogenic Treatments” (Journal of Toxicology, 2013).

SMILES strings stand for the structures. Like-named read-outs stand apart in the source and are kept apart here.

The subject of data set [1] is rat hepatocytes. Kind of data set: cells. It counts as cell-based. The following applies: for IC50: 24 h treatment, read-out: Survival IC50; for % survival: average ± std dev.
The test system of data set [2] is splenocyte. Details: method as in PMID 16463016. The following applies: in vitro, tested independently; cited from earlier work.
Data set [3] deals with dog hepatocytes. Description: Cell survival of primary dog hepatocytes (Cellomics Arrayscan). It is filed as cell-based. The following applies: for IC50: 24 h treatment. From the text: (§1) Primary rat hepatocytes were freshly isolated from Han Wistar rats at AstraZeneca, using the collagenase perfusion method (Selgen, PO, 1976). Primary dog hepatocytes were isolated at AstraZeneca, or purchased from CellzDirect Corp. (Durham, NC), which also uses a collagenase perfusion method. Cells were centrifuged and resuspended in hepatocyte culture media, consisting of Williams E basal media (Sigma-Aldrich, Inc., St. Louis, MO) 5% Hyclone fetal bovine serum (ThermoFisher Scientific Inc., Rockford, IL), 15 mM HEPES (Mediatech Inc., Manassas, VA), 100 units/mL penicillin/streptomycin, 200 μM l-glutamine, 1X ITS (insulin, transferrin, selenium solution from Mediatech Inc.), and 30 nM dexamethasone (Sigma-Aldrich). Cells were suspended at 2.5 × 10^5 cell/mL and added to BD Biocoat collagen I coated microtiter plates at 100 μL/well, for a final count of 25,000 cells/well. Selection criterion for use of initial isolates was 85% minimal viability. Cells were incubated at 37°C in a CO2 incubator for 4 h to allow for cell attachment. Media was aspirated and replaced with hepatocyte culture media without fetal bovine serum and supplemented with 150 μg/mL Matrigel collagen matrix (BD Inc.). Cells were incubated in a CO2 incubator for 24 h, the media was replaced with hepatocyte culture media, and the cells were incubated for an additional 24 h. Compounds were solubilized in DMSO, water, or ethanol to 1000X stock and then diluted to 1X in media. All conditions contained equal concentrations of vehicle.
(§2) In a modification of the procedure described by Morelli et al., hepatocytes were treated with drugs diluted into culture media containing 12 μg/mL NBD-PE (N-(7-nitrobenz-2-oxa-1,3-diazol-4-yl)-1,2-dihexadecanoyl-sn-glycero-3-phosphoethanolamine, triethylammonium salt) for 24 hours. At the end of the treatment period, Sytox orange (100 nM Invitrogen Inc.) was added to cells for 20 minutes prior to fixation. This fluorescent dye stains only cells with compromised cell membranes thereby enabling their exclusion from NBD-PE cell quantitation by the Cellomics ArrayScan instrument. Media were aspirated, cells were washed with 1X PBS and fixed by the addition of 100 μL PBS containing 3.7% formaldehyde, and 1 μg/mL Hoechst dye. Fixation was allowed to proceed for 30 min at RT, and cells were washed three times with 1X PBS, and sealed for imaging. Labeled cells were analyzed using the Cellomics Arrayscan instrument (Cellomics Inc., Pittsburgh, PA) with version 3.5 equipment and software. The ArrayScan captures fluorescent images in the 3 channels relevant to this assay (Hoechst, TRITC for Sytox staining and FITC for NBD-PE staining) and performs automated image analysis to quantify cell nuclei, the number of dead cells, and NBD-PE dye fluorescent intensity. The analysis algorithms that enable cell versus well-based detection were purchased from Cellomics Inc. and are referred to as Cell Health Profiling (CHP) and Target Activation (TA) algorithms. […] NBD-PE peak signal was defined as the maximal response.

Data set [4] concerns dog hepatocytes. Description: NBD-PE accumulation assay in dog hepatocytes. It counts as cell-based. The conditions noted are these: for NBD-PE accumulation, control activity: 300 μM, 24 h, N = 1.
Excerpt: as §1, with “Cells were incubated in a CO2 incubator for 24 h, the media was replaced with hepatocyte culture media, and the cells were incubated for an additional 24 h. Compounds were solubilized in DMSO, water, or ethanol to 1000X stock and then diluted to 1X in media. All conditions contained equal concentrations of vehicle.” left out
In a modification of the procedure described by Morelli et al., hepatocytes were treated with drugs diluted into culture media containing 12 μg/mL NBD-PE (N-(7-nitrobenz-2-oxa-1,3-diazol-4-yl)-1,2-dihexadecanoyl-sn-glycero-3-phosphoethanolamine, triethylammonium salt) for 24 hours. […] This fluorescent dye stains only cells with compromised cell membranes thereby enabling their exclusion from NBD-PE cell quantitation by the Cellomics ArrayScan instrument. […] Labeled cells were analyzed using the Cellomics Arrayscan instrument (Cellomics Inc., Pittsburgh, PA) with version 3.5 equipment and software. The ArrayScan captures fluorescent images in the 3 channels relevant to this assay (Hoechst, TRITC for Sytox staining and FITC for NBD-PE staining) and performs automated image analysis to quantify cell nuclei, the number of dead cells, and NBD-PE dye fluorescent intensity. […]

In data set [5] the test system is rat hepatocytes. Description: NBD-PE accumulation assay in rat hepatocytes. It is filed as cell-based, Han Wistar rats. The conditions noted are these: for NBD-PE accumulation, control activity: 300 μM, N = 1.
Excerpt: as §1, §2

Data set [6] has as its system isolated rat mitochondria. Details: method as in PMID 17917797. The conditions noted are these: cited from earlier work.
Data set [7] relates to rat hepatocytes. Description: Acridine orange lysosomal staining time course in rat hepatocytes. It is filed as cell-based, Han Wistar rats.
Data set [8] relates to dog liver. Kind of data set: Preclinical in vivo toxicology studies in dog.
The subject of data set [9] is rat hepatocytes. Description: Mitochondrial membrane potential (JC-1 fluorescence) in rat hepatocytes. It is filed as cell-based, Han Wistar rats.
Excerpt: as §1
JC-1 was added to cell cultures at a concentration of 5 μg/mL for 30 minutes to allow for cellular accumulation. Media were then aspirated and replaced with fresh media containing drugs of interest without JC-1. Fluorescence was detected using a spectrofluorometer. The ratio of red to green signals was calculated and converted to % control for graphing and analysis.

For data set [10], the system named is rat liver. Description: Preclinical in vivo toxicology studies in rat.
The mark [11] stands for this setting: Rattus norvegicus, Hepatocyte, 24 h.
Setting [12] is: Canis lupus familiaris, Hepatocyte, 24 h.
Where [13] appears, read: preclinical toxicology studies (1-month for compound A), unpublished observations / data not shown.
[14] abbreviates: 1-month toxicology study, comparable plasma exposures, unpublished observations.

For the compound `COc1cc2c(c(N3CCN(C)CC3)c1)O[C@@H](C(=O)Nc1ccc(N3CCOCC3)c(F)c1)CC2` [B], the IC50 (usually the concentration at which inhibition is half-maximal) was above 300 µM in data set [1] (setting [11]) and 153 ± 63 µM in data set [3] (setting [12]). Further, in data set [2], the “Phospholipogenic response in splenocyte model” value (“Phospholipogenic response” for short) is “phospholipogenic”.

On to `CO/C1=C\C(C)=C\[C@@H](C)[C@@H](O)[C@@H](C)C/C(C)=C/C=C/[C@H](OC)[C@@H]([C@@H](C)[C@@H](O)[C@H](C)[C@@]2(O)C[C@@H](O)[C@H](C)[C@@H](C(C)C)O2)OC1=O` [Baf, Bafilomycin A1, reference compound], for which the “Increase in control NBD-PE fluorescent staining” value in data set [4] (100 nM Baf) and in data set [5] (100 nM Baf) was 2 fold throughout. The “Minimal concentration affecting mitochondrial functions (potassium uptake, swelling, loss of membrane potential, uncoupling)” value in data set [6] is recorded as 50 nM.

With `O=C(O)Cc1ccccc1Nc1c(Cl)cccc1Cl` [Diclofenac, reference compound], the concentration for half-maximal inhibition (IC50) in data set [1] (setting [11]) was 832 µM; in data set [3] (setting [12]), 656 µM. Also, the “Phospholipogenic response” value in data set [2] is given as “negative”.

On to `CCN(CCO)CCCC(C)Nc1ccnc2cc(Cl)ccc12` (centres unmarked) [Hydroxychloroquine, reference compound], for which the IC50 in data set [1] is above 300 µM; in data set [1] (setting [11]), 220 µM; in data set [3], 159 µM; in data set [3] (setting [12]), 90 µM. In addition, the Change in survival in data set [1] (control condition without Baf, 24 h) is on record as 25–35%.

In the case of `Cc1ccc(N2CCN(C)CC2)c2c1CC[C@@H](NC(=O)c1ccc(N3CCOCC3)cc1)C2` [NMTMB, N-[(2R)-5-methyl-8-(4-methylpiperazin-1-yl)tetralin-2-yl]-4-morpholino-benzamide], the AO spot count result is “maintained or exceeded control levels” in data set [7] (100 μM, up to 8 h) and around 0% in data set [7] (300 μM, by 4 h). Also, the “Decline of AO spot count compared to control” value in [7] (300 μM, within 30 minutes) was around 50%. Also, the NBD-PE accumulation in data set [5] (50 μM, 24 h) turned out to be 4 fold vehicle control. The EC50 (usually the concentration needed to bring the measured effect to its halfway point) in [5] (Hepatocyte, approximate, estimated from left-hand portion of bell-shaped curve) is around 65 µM. Further, the “Drop in cell survival” value in data set [1] (100 μM, 8 h treatment) stood at 40%. The Hepatocytes surviving in data set [1] (100 μM, 24 hr) was ~ 80%. For the same compound, the entries for the “% survival” value in data set [1] (300 μM NMTMB alone) and in data set [1] (300 μM NMTMB cotreated with PADK) were 9.3 ± 4% and 51 ± 8.5%, respectively. In addition, the “Survival compared to control” value in data set [1] (300 μM, 2 h) stood at 20%. The Cell death result in data set [1] (300 μM, 4 h) is reported as “cell death was complete”; in data set [3] (100 μM, 24 hr), “complete cell death”. Further, the results for the IC50 in data set [1], in [1] (setting [11]) and in data set [3] (setting [12]) were 148 ± 41 µM, 159 µM and 37 ± 13 µM, respectively. Further, the “Phospholipidosis (PLD) in vivo” value in data set [8] (setting [13]) and in data set [10] (setting [13]) was “confirmed multiorgan in vivo phospholipogenics” in each case. Further, the “Time to maximum hyperpolarization” value in data set [9] (100 μM) is reported as at most 2 h. Moreover, the “Time to mitochondria hyperpolarization” value in [9] (100 μM) is listed as at most 1 h. The Mitochondrial polarization status result in [9] (300 μM) is reported as “mitochondria depolarization was observed within the first hour”. The “Mitochondrial polarization status with Baf cotreatment” value in data set [9] (300 μM NMTMB plus 30 nM Baf, by 1 h) is reported as “marked shift from mitochondrial depolarization to a hyperpolarized state”. The Cells dead in [3] (50 μM, 24 h) is recorded as ~ 70%.

On to `COc1cc2c(c(N3CCN(C)CC3)c1)O[C@@H](C(=O)Nc1ccc(N3CCOCC3)cc1)CC2` [compound A], for which the IC50 in data set [1] (Hepatocyte) was above 450 µM; in data set [3] (Canis lupus familiaris, Hepatocyte), 298 ± 22 µM. Moreover, the “Centrilobular necrosis of liver” value in data set [8] (setting [14]) and in data set [10] (setting [14]) was “only dog had concomitant centrilobular necrosis” each time.

Take `CCCc1cccc2c(N)c(C(=O)NCC3CC3)nnc12` [compound C]: the results for the “NBD-PE accumulation, control activity” value in [4] and in [5] (24 h) were 121% and 95%, respectively. The IC50 in [1] (setting [11]) and in data set [3] (setting [12]) was above 300 µM throughout. Moreover, the “Phospholipogenic response” value in [2] is on record as “negative”.

Turning to `Nc1ccc(N2CCOCC2)cc1` [compound D], the “NBD-PE accumulation, control activity” value in [4] was found to be 140%; in data set [5] (24 h), 101%. The half-inhibitory concentration (IC50) in data set [1] (setting [11]) and in data set [3] (setting [12]) was above 300 µM throughout. For the same compound, the “Phospholipogenic response” value in data set [2] is reported as “negative”.
